Test results as given in a melting point compilation (Tetko et al.; mined from patent text by program, amines drawn as free bases though some values may be those of a salt).

Row | Compound | melting point [°C]
1 | CCC(CC)c1nn(-c2ccc(C(F)(F)F)nn2)cc1CCCOc1c(CC(=O)O)cccc1OC | 81 to 82
2 | O=C(c1ccccc1)c1cc(Cc2ccccc2)c(O)c2ccccc12 | 152 to 155
3 | O=C(Nc1ccccc1)c1ccccc1Nc1ncnc2[nH]cc(C(=O)c3ccccc3)c12 | > 300
4 | COC(=O)c1ncccc1NC(=O)C(C)CS (configuration not stated) | 55 to 56
5 | CCN(Cc1ccc(Cl)nc1)C(=C[N+](=O)[O-])N(C)C(=O)OCOC(=O)c1ccccc1 | 62 to 63
6 | CN1CNC(=S)N(c2ccc(F)cc2)C1 | 173 to 175
7 | O=C(c1ccccc1[N+](=O)[O-])N1CCCc2ccccc21 | 155
8 | CCOC(=O)C(=O)C1C(=O)c2cccc3cccc1c23 (configuration not stated) | 101 to 103
9 | CCCc1c2nc(C(=O)OC)cc(NS(=O)(=O)c3ccc(C)cc3)c2cc2c(=O)cc(C(=O)OCC)oc12 | 219
10 | CN1C(=O)CCC1(O)c1ccc(Cl)c(S(=O)(=O)Nc2cc(C(C)(C)C)c(O)c(C(C)(C)C)c2)c1 (configuration not stated) | 120 to 130
11 | Cc1cc(F)c2ncc(C(=O)NNc3ccc(Cl)cc3)c(O)c2c1 | 256 to 258
12 | CCOC(=O)Cc1c(-c2ccccc2)c2cc3c(cc2oc1=O)C(=O)OC3 | 222 to 223
13 | Cc1cc(Br)cnc1CCCCNc1nccc(=O)[nH]1 | 109 to 113
14 | CN(C)c1ccc([N+](=O)[O-])c(CN)c1 | 97 to 98
15 | COc1ccc(-c2nc3cnncc3[nH]2)c(OCC#N)c1 | 268
16 | CCCOCCOc1cccc(-c2ccc3c(c2)C=C(C(=O)Nc2ccc(CN(C)C4CCOCC4)cc2)CCS3(=O)=O)c1 | 166 to 167
17 | CC1(C)Oc2ccc(Cl)cc2C(CS(=O)(=O)NCC(=O)NCCc2ccccc2)C1O (configuration not stated) | 168 to 170
18 | CN(C)S(=O)(=O)N(C)c1ccc(C(O)(C(F)(F)F)C(F)(F)F)cc1 | 63 to 65
19 | CC(C)c1cc(O)n[nH]1 | 189 to 193
20 | CCCN1CCC(=O)C(C(c2ccccc2)c2ccccc2)C1 (configuration not stated) | 72 to 76
21 | C[Si](C)(C)NC(=O)CC(=O)N[Si](C)(C)C | 72 to 76
22 | C#Cc1cccc(Nc2ncnc3c2ccn3CCOC)c1 | 240 to 241
23 | COCCc1nc2c(N)nc3ccccc3c2n1CCCCC(=O)N1CCOCC1 | 128 to 129
24 | Fc1cccc2c(NCCc3ccc4ccccc4c3)ccnc12 | 173 to 174
25 | CN(C)Cc1c[nH]c2cc(Cl)ccc12 | 130 to 133
26 | CCNC(=O)C1CCN(Cc2cnc3cc(NC(=O)c4ccc(-c5ccc(F)cc5)cc4)c(C)cc3c2)CC1 | 254

Row | Compound | melting point [°C]
27 | O=C(CCC(=O)c1ccc(F)cc1)Nc1ccc(-n2nc(C(F)(F)F)cc2C(F)(F)F)cc1 | 156 to 158
28 | O=c1c(CO)cnc2c3ccccc3ccn12 | 198
29 | CNc1nc(C)c(C(=O)c2ccc(N)c([N+](=O)[O-])c2)s1 | 260 to 261
30 | CC(=O)OCC(C)(Sc1cc2ccccc2[nH]1)c1ccccc1 (configuration not stated) | 105 to 106
31 | O=C(c1ccccc1)N1CCC(CN2CCc3c([nH]c4ccccc34)C2)CC1 | 162 to 164
32 | C=CC(=O)Oc1c(Br)c(Br)c(Br)c(Br)c1OC(=O)C=C | 135 to 137
33 | Cc1cccc(C(=O)c2ccc(OCCOc3ccc(C(=O)c4cccc(C)c4)cc3)cc2)c1 | 164 to 167
34 | N#Cc1cnn(-c2ccc(Cl)c(Cl)c2Cl)c1NC=O | 190 to 192
35 | Cc1nccc(C(N)=O)c1[N+](=O)[O-] | 203 to 204
36 | C#Cc1ccc2c(C(=O)c3ccc(OCCN4CCCCC4)cc3)c(-c3ccc(O)cc3)sc2c1 | 97 to 100
37 | COc1ccc(S(=O)(=O)C2(C(=O)O)CCN(Cc3ccc(F)cc3)CC2)cc1 | 154
38 | O=c1ccoc2ccc(F)cc12 | 165 to 168
39 | COc1ccc(Cl)cc1C(=O)NCc1ccc(CCC(=O)O)cc1 | 152 to 153
40 | Cn1c(C(F)(F)F)ccc(-c2cc(N)c(Cl)cc2F)c1=O | 155 to 157
41 | N#Cc1ccc(C2(Cc3ccccc3)C(=O)N(CC3CC3)Cc3cncn32)cc1 (configuration not stated) | 156 to 158
42 | CCNc1nc(-c2ccc(F)cc2)c(-c2ccc(S(C)(=O)=O)cc2)s1 | 218 to 219
43 | CC1(C)CCc2c(-c3ccco3)nc3sc4c(NCCN5CCOCC5)ncnc4c3c2C1 | 123 to 125
44 | Cc1nc2c(N)nc3ccccc3c2n1CCCOCC#Cc1ccccc1 | 160 to 162
45 | CC(=O)Oc1c(C)nc(N)nc1C(C)C | 141 to 142
46 | O=C1c2ccc(Cl)cc2C(=O)N1c1ccccc1 | 187 to 189
47 | COC1(c2ccc3c(c2)OCO3)CCC(=O)CC1 | 84 to 85
48 | COc1ccc2c(c1)CC(C)(CN1CCC(c3ccccc3)CC1)NC2=O (configuration not stated) | 93 to 95
49 | CC(=O)NC[C@H]1CN(c2ccc(C3(F)CCNCC3)c(F)c2)C(=O)O1 | 163 to 165
50 | CN1OCCN(c2ccc(Cl)cc2Cl)C1=O | 94 to 95
51 | O=S(=O)(c1cccs1)N(CC1CC1)c1cccc2cc(-c3ncc(CO)s3)[nH]c12 | 174
52 | O=C1NCC(c2ccccc2)SCC1N1C(=O)c2ccccc2C1=O (configuration not stated) | 240 to 247

Row | Compound | melting point [°C]
53 | Cc1cc2c(cc1Cl)NC(=O)C2c1ccccc1Cl (configuration not stated) | 186
54 | CCOC(=O)c1cc(NCc2ccccc2)c(NC2CCCCC2)c(S(N)(=O)=O)c1 | 176 to 177
55 | O=CC(=Cc1cccc(Cl)c1)C(C=O)=Cc1cccc(Cl)c1 | 107 to 108
56 | CCCCCCCCCCCCCCCCCCCCCC(=O)Nc1ccn(C2OC(CO)C(O)C2O)c(=O)n1 (configuration not stated) | 141 to 143
57 | c1ccc(-c2nnc(-c3ccccc3)c3c2CCCCCC3)cc1 | 163 to 165
58 | CCCOc1cccc2cc(-c3ccc4c(c3)C=C(C(=O)Nc3ccc(CN(C)C5CCOCC5)cc3)CCS4(=O)=O)oc12 | 246 to 248
59 | CCCCOc1ccc(C2=CC=CN3CCS(=O)(=O)N=C23)cc1 | 230 to 232
60 | Cc1nc(NC(=O)c2ccco2)sc1C(=O)c1sc(NC(=O)c2ccco2)nc1C | 198 to 199
61 | CC(C(=O)O)(c1ccccc1)c1ccc(O)cc1 (configuration not stated) | 136 to 137
62 | CCOC(=O)C(Cc1ccc(C)c(C)c1)(NC(C)=O)C(=O)OCC | 107 to 109
63 | CC(=O)c1ccncc1OC1SCC(O)C(O)C1O (configuration not stated) | 163
64 | CC(=NO)C(C)(C)NCCN(C)NC(C)(C)C(Cn1ccnc1[N+](=O)[O-])=NO | 156 to 158
65 | [N-]=[N+]=C1C(=O)Nc2ccc(F)cc21 | 209 to 210
66 | CC1(C)Oc2ccc([N+](=O)[O-])cc2C2OC21 (configuration not stated) | 91 to 93
67 | CC(C)(C)OC(=O)N1C(=O)[C@H](O)[C@@H]1c1ccccc1 | 132
68 | CCC1N=C(c2ccccc2Cl)c2cc(CCC(=O)OC)sc2-n2c(C)nnc21 (configuration not stated) | 126 to 127
69 | Cc1nc(N)c2nc(CO)n(NC3CCCC3)c2c1C | 254 to 256
70 | CCN1c2ccccc2N(C(=O)CN(C)C)c2ccccc2S1(=O)=O | 115 to 116
71 | COc1c(N2CC(=NO)C3(CC3)C2)c(F)cc2c(=O)c(C(=O)O)cn(C3CC3)c12 | 233 to 235
72 | O=C(O)c1cc(F)c(F)c(F)n1 | 81 to 82
73 | CCOC(=O)c1c(N2CCN(C(=O)c3cccs3)CC2)c2cnccc2n(CC(=O)c2ccccc2)c1=O | 157
74 | CCCCc1nc2c(N)nc3cccnc3c2n1CCCCNC(=O)c1ccc(C(OCCN(C)C)c2ccccc2)cc1 (configuration not stated) | 105 to 108
75 | CCOC(=O)COc1ccc2cc(-c3cc4ccccc4o3)ccc2c1Cl | 140 to 142
76 | Cc1nnc2c3cccc(Br)c3ccn12 | 203 to 204
77 | CC(C)(C)OC(=O)N[C@@H](Cc1cc(F)cc(F)c1)[C@H]1CO1 | 99
78 | O=C(NC(Cc1ccccc1)C(=O)O)c1ccccc1O (configuration not stated) | 52 to 53

Row | Compound | melting point [°C]
79 | COc1c(C)cnc(CS(=O)c2nc3ncccc3[nH]2)c1C (configuration not stated) | 169 to 170
80 | O=C(Oc1ccccc1OC(=O)c1ccccc1)c1ccccc1 | 75 to 77
81 | O=C(O)c1cccc2ncc(-c3ccccc3)cc12 | > 290
82 | Fc1ccc(Cn2c(NC3CCN(CCc4cccs4)CC3)nc3ccccc32)cc1 | 152
83 | CCOC(=O)c1ccc(-c2nnc(-c3ccccc3N)o2)cc1 | 174 to 175
84 | CC(C)Nc1nc(-c2ccccc2)c(-c2ccc(=O)n(C(C)C)n2)s1 | 138 to 139
85 | O=[N+]([O-])N=c1ccccn1Cc1ccc(Cl)nc1 | 209 to 212
86 | COCCNC(=O)c1cccc(-c2cccc3cc(Cc4cc(F)cc(C(F)(F)F)c4)sc23)c1 | 106 to 107
87 | CC(C(=O)O)c1ccc(C=C2CCCCC2O)cc1 (configuration not stated) | 135 to 136
88 | CCON=C(c1ccccc1COc1ccccc1)n1cncn1 | 78.5 to 80.5
89 | CC(C)c1cc(C=CC(=O)Nc2cccc(C(=O)O)c2)oc1C(C)C | 220 to 222
90 | ClC(Cl)=Cc1ccc(OCc2ccccc2)cc1 | 74.5 to 76.5
91 | O=C(O)CSCC(Cc1ccccc1)NCCS (configuration not stated) | 201
92 | CN1Cc2c(-c3noc(CN4CC=CC4)n3)ncn2-c2ccccc2C1=O | 215 to 220
93 | CSc1ccc(-c2cc(-c3nc4ccccc4c(=O)n3-c3ccccc3)sc2N2CCOCC2)cc1 | 218 to 220
94 | Cc1oc(-c2ccccc2)nc1COc1cccc(COc2ccc(CC(=O)O)cc2)c1 | 179 to 180
95 | CC(SCCS(=O)(=O)N(C)C)c1ccc2c(c1)OCO2 (configuration not stated) | 93 to 94.5
96 | COc1cc2c(cc1C(=O)Cl)nnn2C(C)=O | 170
97 | N#CC1C(=O)NC(=O)C(C#N)C12CCCCC2 (configuration not stated) | 202 to 210
98 | O=C1CCc2c(Cl)cc(F)cc21 | 94 to 96
99 | COc1cc(CO)c(-c2cccc(OCCC(C)CCCC(C)C)c2)cc1CO (configuration not stated) | 55
100 | CCCCC[C@H]1CC[C@H](C(=O)Oc2ccc(OC(F)F)cc2)CC1 | 54
101 | CCOC(=O)Nc1ccc(Cl)nc1 | 110
102 | CCNc1nc(N)c(SC)c(Cl)n1 | 124
